Assay results published in US20050159481A1, “Medicinal composition for improving angiotension-regulating function of blood vessel endothelium” (CHUGAI SEIYAKU KABUSHIKI KAISHA, priority 2002, published 2005).

Tested on: rat mesenteric artery sections damaged by oxidized LDL
Assay: Vascular endothelium-dependent relaxation response to acetylcholine in rat vessel cross-sections damaged by oxidized LDL
Assay type: cell-based
Settings: for ACh concentration at which the relaxation degree of 50% was achieved: 30 min perfusion, then oxidized LDL 100 μg/mL for 60 min, sections contracted with 5 μM phenylephrine
Procedure: The ability of a compound of the present invention to ameliorate the vascular tone-regulating function of vascular endothelium was evaluated by assaying vascular endothelium-dependent relaxation response to acetylcholine in the presence of a compound of the present invention using cross-section samples of rat vessels damaged by oxidized low-density lipoprotein (oxidized LDL).
Oxidized LDL is a substance derived from an endogenous low-density lipoprotein (LDL) via a exposure to a oxidative stress, and has been reported to be involved in the mechanism by which vascular endothelial cells are damaged (Tanner F C, Noll G, Boulanger C M, Luscher T F, Oxidized low density lipoproteins inhibit relaxations of porcine coronary arteries. Role of scavenger receptor and endothelium-derived nitric oxide. Circulation. 1991, 83:2012-20). The oxidized LDL used in this test was prepared by incubating rabbit LDL suspended at 200 μg/mL in phosphate buffered physiological saline (PBS) prepared by the method of Havel et al. (Havel R. J. et al., J. Clin. Invest., 34, 1345 (1955)) with 5 μM CuSO4 at 37° C. for 24 hours.
First, the mesenteric artery was collected from a rat euthanized by carbon dioxide inhalation into Krebs buffer (containing 118.0 mM NaCl, 4.7 mM KCl, 25.0 mM NaCO3, […] CaCl, 1.5 mM MgSO4 and 10 mM glucose), and the artery was cut into 2 mm wide annular cross sections. Then, the sections were suspended in a Magnus bath where they were equilibrated under a tension of 3 mN for 60 minutes. After equilibration, the sections were contracted with a 5 μM phenylephrine solution in Krebs buffer.
After confirming that a stable contraction was achieved, the perfusion solution was replaced with Krebs buffer containing 20 μM each of test compounds. The test compounds were the compound of the present invention, 4,6-di-t-butyl-5-hydroxy-2,2-di-n-pentyl-2,3-dihydrobenzofuran, and comparative compounds, probucol and α-tocopherol. Probucol is a compound reported to ameliorate the vascular tone-regulating function of vascular endothelium by preventing the decrease of the EDRF-secreting ability of vascular endothelial cells. α-tocopherol is a fat-soluble endogenous antioxidant known to inhibit the oxidation of LDL.
After perfusion for 30 minutes, oxidized LDL was added to a concentration of 100 μg/mL. After equilibration in the perfusion solution containing oxidized LDL for 60 minutes, acetylcholine (ACh) was cumulatively added at concentrations from 1×10^−10 M to 1×10^−5 M. At equally spaced ACh concentrations, the length of each section was measured to calculate the degree of relaxation (%) by dividing the difference between the lengths of the section before and after relaxation by the length before relaxation. This relaxation is a phenomenon resulting from the acetylcholine-induced secretion of EDRF from vascular endothelial cells.
In addition to the experiment described above, a similar experiment was performed except that the perfusion in Krebs buffer containing test compounds and the equilibration with oxidized LDL were omitted (control experiment) or except that the perfusion in Krebs buffer containing test compounds was omitted but the equilibration with oxidized LDL was included (oxidized LDL experiment).
The procedure of test example 1 was followed except that the concentration of the test compound was increased from 20 μM to 50 μM.

[1] = 20 μM test compound, compared with the oxidized LDL experiment, FIG. 1

Compound | ACh concentration at which the relaxation degree of 50% was achieved (20 μM test compound, FIG. 1) [nM] | Ameliorating effect on the vascular tone-regulating function of vascular endothelium damaged by oxidized LDL [1] | Ameliorating effect on the vascular tone-regulating function of vascular endothelium damaged by oxidized LDL (50 μM test compound, compared with the control, FIG. 2)
CCCCCC1(CCCCC)Cc2c(cc(C(C)(C)C)c(O)c2C(C)(C)C)O1 [compound of the present invention, 4,6-di-t-butyl-5-hydroxy-2,2-di-n-pentyl-2,3-dihydrobenzofuran] | 126 | ameliorated the vascular tone-regulating function of vascular endothelium | adverse influence of oxidized LDL-induced damages to vascular endothelial cells on the vascular tone-regulating function was completely removed
CC(C)(Sc1cc(C(C)(C)C)c(O)c(C(C)(C)C)c1)Sc1cc(C(C)(C)C)c(O)c(C(C)(C)C)c1 [probucol] | 121 |  | 
Cc1c(C)c2c(c(C)c1O)CC[C@@](C)(CCC[C@H](C)CCC[C@H](C)CCCC(C)C)O2 [α-tocopherol] | 261 | does not ameliorate the vascular tone-regulating function of vascular endothelium | 
